Values joined by “and” are separate entries in the source; they are usually repeats but may differ in a detail not shown here. Equal values may be shown once. “Also recorded” adds a separate entry of the source. Read-outs that look alike come from different tables or passages of the source.
Experiments:
T. cruzi trypomastigotes = tested on: T. cruzi trypomastigotes; set-up: method as in PMID 25583723; conditions: cited from earlier work
[1] = set-up: method as in PMID 16432511; conditions: in mice; cited from earlier work
[2] = tested on: L. donovani intracellular amastigotes; set-up: method as in PMID 31897791; conditions: J774 macrophages as host cells; cited from earlier work
[3] = tested on: THP-1 human monocyte cell line; assay: Host cell toxicity in the L. donovani amastigote assay; assay type: cell-based; conditions: 3 days of compound incubation; Figure 2F
Experimental: The THP-1 human monocyte cell line was grown in RPMI-1640 medium (Welgene, Gyeongsangbuk-do, Republic of Korea) supplemented with 10% FBS and 1% P/S. For differentiation, THP-1 cells were treated for 3 days with 50 ng/mL of PMA [20]. […] An image analysis was performed as described in the T. cruzi assay (Figure S2).

[4] = tested on: L. donovani promastigotes; set-up: method as in PMID 31897791; conditions: cited from earlier work
T. gondii tachyzoites = assay: In vitro activity assay for T. gondii (td-tomato tachyzoites in hTert fibroblasts); assay type: cell-based; conditions: Toxoplasma gondii, Fibroblast; human fibroblasts (hTert), fluorescence 3 to 4 days; Figure 6A; read-out: IC50, T. gondii cell growth inhibition (intracellular tachyzoite assay)
Experimental: We used a parasite strain expressing red fluorescent protein (td-tomato) for in vitro drug testing. Tachyzoites were maintained in human fibroblasts (hTert cells). Human fibroblasts were cultured in 96-well plates for 24 h prior to the addition of 4000 fluorescent tachyzoites/well. Fluorescence values were measured for 3 to 4 days, and both excitation (544 nm) and emission (590 nm) were read from the bottom of the plates in a Molecular Devices (Molecular Devices, LLC, CA, USA) plate reader.

[5] = tested on: intracellular L. donovani amastigotes in THP-1; assay: L. donovani intracellular amastigotes assay in THP-1 (image based); assay type: cell-based
[6] = cited from earlier work
[7] = tested on: L. mexicana intracellular amastigotes; set-up: method as in PMID 27458218; conditions: cited from earlier work
[8] = tested on: L. donovani promastigotes; assay: L. donovani promastigotes assay (resazurin); assay type: cell-based; conditions: Leishmania donovani
[9] = tested on: intracellular T. cruzi Dm28c amastigotes in U2OS; assay: T. cruzi intracellular amastigotes assay in U2OS (image based); assay type: cell-based; conditions: Trypanosoma cruzi
Experimental: (§1) U2OS human osteosarcoma cells were maintained in DMEM supplemented with high glucose, 10% FBS, and 1% P/S at 37 °C with 5% CO2 in air. […] Cell images were acquired by an automated image analyzer (Operetta, Perkin Elmer Technology, Waltham, MA, USA); analysis included at least 1000 cells in five fields per well. For the imaging of infected cells and parasites, Draq-5 was observed under a 20× air objective. An image analysis algorithm (Columbus, Perkin Elmer Technology) was used to detect the Draq-5 signal in the nuclei of cells and parasites as described in a previous article and shown in Supplementary Figure S1 [20]. The number of parasites was defined by the value of the number of parasites in infected cells of the acquired image.

[10] = tested on: T. b. brucei Lister strain 427 bloodstream form (BSF); assay: In vitro activity assay for T. brucei (resazurin growth inhibition); assay type: cell-based; conditions: Trypanosoma brucei
L. donovani amastigotes = assay: L. donovani (VL) in vivo mouse model, liver LDU; set-up: species or system BALB/c mice; conditions: for parasite burden in liver (LDU): 5 days of treatment; for reduction of parasite burden: versus vehicle-treated group
Experimental: BALB/c mice (n = 5) were injected with 2 × 10^7 hamster spleen-derived L. donovani amastigotes via the retro-orbital venous sinus route. From day 7 post-infection, groups of mice were treated using the drug vehicle only, miltefosine (30 mg/kg), or SQ109 (30, 50, 100 mg/kg). On day 16 post-infection, all animals were humanely euthanized and assessed microscopically using Giemsa-stained liver imprints. […] The LDU values for the drug-treated samples were compared to those of the untreated samples.

T. b. brucei Lister 427 = assay: T. brucei acute in vivo mouse model; set-up: species or system BALB/c mice
[11] = in vivo, 25 mg/kg; cited from earlier work
[12] = Host cell toxicity in the T. cruzi amastigote assay; assay type: cell-based; conditions: human
Experimental: as §1

[13] = tested on: T. gondii tachyzoites of the RH strain; assay: T. gondii in vivo mouse model; set-up: species or system Webster mice; conditions: for survival of T. gondii infected mice: 20 and 50 mg/kg daily for 10 days
[14] = Reported plasma protein binding; assay type: in vitro ADME, mice; conditions: from the reported plasma protein binding
[15] = Adverse effects observed during the in vivo experiments; set-up: species or system mice; conditions: tested doses (20 to 100 mg/kg)
[16] = tested on: Plasmodium falciparum mature gametocytes (stage IV/V); set-up: method as in PMID 33431834; conditions: cited from earlier work
T. cruzi epimastigotes = tested on: T. cruzi epimastigotes; set-up: method as in PMID 25583723; conditions: cited from earlier work

SMILES: CC(C)=CCC/C(C)=C/CNCCNC1C2CC3CC(C2)CC1C3 (stereo not shown) [SQ109, N-adamantan-2-yl-N’-((E)-3,7-dimethyl-octa-2,6-dienyl)-ethane-1,2-diamine]
- IC50 (T. cruzi trypomastigotes): 50 nM
- plasma protein binding [1]: 5.8–8.5%
- IC50 [2]: 7.17 nM and 7.2 nM
- host cell (THP-1) toxicity: concentration up to which none was observed [3]: > 10 µM
- IC50 [4]: 630 nM
- IC50 (T. gondii tachyzoites): 1820 nM
- anti-amastigote activity in the current study less than the reported one ([5]; L. donovani, THP-1 (this study) versus J774 (ref 10)): ~ 200 fold
- IC50 ([5]; Leishmania donovani, 72 h, differentiated THP-1 host cells, 3 days of compound incubation, Figure 2F): 1380 nM
- maximum tolerated dose (MTD) [6]: 600 mg/kg
- IC50 [7]: ~11 nM
- EC50 ([8]; promastigotes, read-out: L. donovani EC50 (PRO)): 280 nM
- IC50 ([8]; 72 h, Figure 2E, read-out: IC50, L. donovani promastigote growth): 175 nM
- IC50 ([9]; 72 h, U2OS host cells, 3 days of compound incubation, Figure 2D, read-out: IC50, intracellular T. cruzi amastigote survival): 610 nM
- EC50 ([9]; amastigotes in U2OS, read-out: T. cruzi Dm28c EC50 (AMA)): 1100 nM
- EC50 ([10]; bloodstream forms, read-out: T. brucei BSF EC50 (converted)): 810 nM
- IC50 ([10]; 3 days (72 h) of compound incubation, Figure 2A, read-out: IC50, T. brucei trypomastigote viability): 320 nM
- parasite burden in liver (LDU) (L. donovani amastigotes; 30 mg/kg): 1060 ± 110 LDU
- parasite burden in liver (LDU) (L. donovani amastigotes; 50 mg/kg): 772 ± 89 LDU
- reduction of parasite burden (L. donovani amastigotes; 50 mg/kg): 31.8%
- parasite burden in liver (LDU) (L. donovani amastigotes; 100 mg/kg): 737 ± 145 LDU
- reduction of parasite burden (L. donovani amastigotes; 100 mg/kg): 34.9%
- extended survival compared to the vehicle control (T. b. brucei Lister 427; 30 mg/kg, q.d. for 5 days, p.o.): 3.4 days
- average day of survival (T. b. brucei Lister 427; 30 mg/kg, q.d. for 5 days, p.o., T. brucei infected BALB/c mice): 8.6 days
- average days of extended survival compared to the vehicle control (T. b. brucei Lister 427; 100 mg/kg, q.d. for 5 days, p.o.): 3.6 days
- parasitemia in blood, in words (T. b. brucei Lister 427; 30 or 100 mg/kg p.o. for 5 days, Figure 3B): parasitemia rapidly increased after the termination of SQ109 administration; also recorded: not able to completely clear the parasites in the bloodstream
- t1/2 (terminal phase) [11]: 5.2 h
- CC50 at 3 days ([12]; 3 days of compound incubation, Figure 2D, read-out: half-maximal cytotoxic concentration (CC50) against the host U2OS): 2950 nM
- CC50 at 3 days ([12]; amastigote host cells, read-out: T. cruzi Dm28c CC50 (U2OS)): 3600 nM
- survival / protection of T. gondii infected mice against the initial infection ([13]; hypervirulent RH strain, 50 mg/kg i.p.): Eighty percent
- survival of T. gondii infected mice ([13]; i.p., Figure 6B): 50–80%
- survival of T. gondii infected mice ([13]; oral gavage, 40 days post-infection, Figure 6C): 30–40%
- animals surviving the re-challenge at day 42 ([13]; treated with 20 mg/kg/day): 4 out of 6
- outcome of the re-challenge at 42 days, in words ([13]; treated with 50 mg/kg/day): all died with the challenge
- free-drug fraction expected in mice plasma [14]: ~ 90%
- adverse effects throughout the in vivo experiments [15]: did not observe any adverse effects
- IC50 [16]: 105 nM
- IC50 (T. cruzi epimastigotes): 4600 nM

Reference: paper PMC8944987, “In Vivo Efficacy of SQ109 against Leishmania donovani, Trypanosoma spp. and Toxoplasma gondii and In Vitro Activity of SQ109 Metabolites” (Biomedicines, 2022)
